Measured values from publication PMC7093416, “Selective USP7 inhibition elicits cancer cell killing through a p53-dependent mechanism” (Scientific Reports, 2020).

Tested on: panel of 484 cancer cell lines
Assay: PRISM cancer cell line profiling, 5 days
Type: cell-based
Parameters: AUC: unit not given beside the values
Procedure: Cancer cell line profiling was performed using the Broad’s PRISM platform. Cell treatment and data analysis were performed as described in Yu et al[42]. Raw Luminex signal was converted to AUC values for each cell line as described. The resulting AUC profile for each compound was modeled against DepMap using the limma package in R[71]. Because hotspot mutation analysis was performed against DepMap, TP53 annotations in Fig. 6c,d are directly from DepMap.

CN1CCN(CCC(=O)Nc2ccc3c(=O)n(CC4(O)CCN(C(=O)[C@@H](CCCNC(=O)c5ccc6c(Cl)c7c(nc6c5)CCCC7)Cc5ccccc5)CC4)cnc3c2)CC1 [XL177A]
AUC (HCC1438_LUNG): 0.7615
AUC (HCC1588_LUNG): 1.23
AUC (HCC1806_BREAST): 0.9812
AUC (HCC1937_BREAST): 1.015
AUC (HCC4006_LUNG): 0.9625
AUC (HCT15_LARGE_INTESTINE): 1.19
AUC (HCT116_LARGE_INTESTINE): 0.9421
AUC (HDQP1_BREAST): 0.9973
AUC (HEC1A_ENDOMETRIUM): 1.131
AUC (HEC1B_ENDOMETRIUM): 0.9267
AUC (HEC6_ENDOMETRIUM): 0.9564
AUC (HEC59_ENDOMETRIUM): 1.149
AUC (HEC108_ENDOMETRIUM): 0.8058
AUC (HEC151_ENDOMETRIUM): 0.7769
AUC (HEC251_ENDOMETRIUM): 0.792
AUC (HEC265_ENDOMETRIUM): 0.8327
AUC (HEP3B217_LIVER): 1.13
AUC (HEYA8_OVARY): 0.9929
AUC (HGC27_STOMACH): 1.014
AUC (HLF_LIVER): 1.111
AUC (HMC18_BREAST): 0.9153
AUC (HOS_BONE): 1.0422
AUC (HPAC_PANCREAS): 1.477
AUC (HS294T_SKIN): 0.8762
AUC (HS618T_LUNG): 0.9543
AUC (HS729_SOFT_TISSUE): 0.9806
AUC (HS766T_PANCREAS): 0.877
AUC (HS852T_SKIN): 1.359
AUC (HS939T_SKIN): 1.069
AUC (HS944T_SKIN): 1.047
AUC (HSC2_UPPER_AERODIGESTIVE_TRACT): 0.968
AUC (HSC3_UPPER_AERODIGESTIVE_TRACT): 0.8381
AUC (HT29_LARGE_INTESTINE): 1.3
AUC (HT55_LARGE_INTESTINE): 1.168
AUC (HT144_SKIN): 1.076
AUC (HT1080_SOFT_TISSUE): 1.011
AUC (HT1376_URINARY_TRACT): 1.127
AUC (HUCCT1_BILIARY_TRACT): 0.9724
AUC (HUH6_LIVER): 0.8768
AUC (HUH7_LIVER): 1.027
AUC (HUH28_BILIARY_TRACT): 1.165
AUC (HUPT3_PANCREAS): 1.003
AUC (IALM_LUNG): 0.9313
AUC (IGR1_SKIN): 0.998
AUC (IGR37_SKIN): 0.9905
AUC (IGROV1_OVARY): 0.7266
AUC (IM95_STOMACH): 0.6846
AUC (IPC298_SKIN): 0.897
AUC (ISHIKAWAHERAKLIO02ER_ENDOMETRIUM): 1.0984
AUC (ISTMES1_PLEURA): 0.9912
AUC (ISTMES2_PLEURA): 1.073
AUC (J82_URINARY_TRACT): 1.012
AUC (JHH1_LIVER): 0.7875
AUC (JHH4_LIVER): 1.303
AUC (JHH5_LIVER): 1.313
AUC (JHH6_LIVER): 1.146
AUC (JHH7_LIVER): 1.089
AUC (JHOC5_OVARY): 0.9299
AUC (JHOM1_OVARY): 1.1
AUC (JHOS2_OVARY): 1.084
AUC (JHUEM2_ENDOMETRIUM): 0.6526
AUC (JIMT1_BREAST): 0.9668
AUC (JMSU1_URINARY_TRACT): 1.405
AUC (K029AX_SKIN): 0.9501
AUC (KALS1_CENTRAL_NERVOUS_SYSTEM): 0.9126
AUC (KELLY_AUTONOMIC_GANGLIA): 1.086
AUC (KMBC2_URINARY_TRACT): 0.7761
AUC (KMRC1_KIDNEY): 1.1591
AUC (KMRC3_KIDNEY): 1.033
AUC (KMRC20_KIDNEY): 1.2
AUC (KNS42_CENTRAL_NERVOUS_SYSTEM): 1.183
AUC (KNS60_CENTRAL_NERVOUS_SYSTEM): 1.16
AUC (KNS62_LUNG): 0.8251
AUC (KNS81_CENTRAL_NERVOUS_SYSTEM): 0.9475
AUC (KP2_PANCREAS): 1.066
AUC (KP3_PANCREAS): 1.01
AUC (KP4_PANCREAS): 0.8954
AUC (KPL1_BREAST): 0.9211
AUC (KU1919_URINARY_TRACT): 0.8697
AUC (KYSE30_OESOPHAGUS): 0.8748
AUC (KYSE70_OESOPHAGUS): 0.8646
AUC (KYSE140_OESOPHAGUS): 1.147
AUC (KYSE150_OESOPHAGUS): 0.9935
AUC (KYSE180_OESOPHAGUS): 1.01
AUC (KYSE270_OESOPHAGUS): 0.9741
AUC (KYSE410_OESOPHAGUS): 1.031
AUC (KYSE510_OESOPHAGUS): 0.9351
AUC (KYSE520_OESOPHAGUS): 0.8676
AUC (L33_PANCREAS): 1.236
AUC (LC1SQSF_LUNG): 1.124
AUC (LCLC103H_LUNG): 1.104
AUC (LI7_LIVER): 1.1644
AUC (LK2_LUNG): 1.455
AUC (LMSU_STOMACH): 0.9257
AUC (LN18_CENTRAL_NERVOUS_SYSTEM): 0.8921
AUC (LN229_CENTRAL_NERVOUS_SYSTEM): 1.185
AUC (LNCAPCLONEFGC_PROSTATE): 0.7244
AUC (LOUNH91_LUNG): 1.175
AUC (LOVO_LARGE_INTESTINE): 1.153
AUC (LOXIMVI_SKIN): 0.9286
AUC (LS180_LARGE_INTESTINE): 0.8962
AUC (LS411N_LARGE_INTESTINE): 1.328
AUC (LS513_LARGE_INTESTINE): 1.158
AUC (LS1034_LARGE_INTESTINE): 1.385
AUC (LU99_LUNG): 0.9975
AUC (LUDLU1_LUNG): 1.119
AUC (LXF289_LUNG): 0.9272
AUC (MALME3M_SKIN): 0.9568
AUC (MCAS_OVARY): 0.987
AUC (MCF7_BREAST): 0.9375
AUC (MDAMB175VII_BREAST): 1.118
AUC (MDAMB231_BREAST): 0.9911
AUC (MDAMB435S_SKIN): 0.9274
AUC (MDAMB436_BREAST): 0.9312
AUC (MDAMB468_BREAST): 0.902
AUC (MELHO_SKIN): 0.9951
AUC (MELJUSO_SKIN): 0.9827
AUC (MESSA_SOFT_TISSUE): 0.5444
AUC (MEWO_SKIN): 0.9674
AUC (MFE280_ENDOMETRIUM): 1.202
AUC (MFE296_ENDOMETRIUM): 1.106
AUC (MFE319_ENDOMETRIUM): 1.097
